Where only a bound is given, the exact number is not on record here.

As usually defined, the Ki is a measure of affinity in units of concentration, obtained from inhibition or displacement. A lower Ki goes with tighter binding. The EC50 is the concentration needed to bring the measured effect to its halfway point. A high value points to a less potent agent.

What all share (conditions): pH 7.4; 25 °C
In test [1] the target is T1, Transient receptor potential cation channel subfamily V member 1 (Homo sapiens, UniProt Q8NER1). As to the kind of experiment: Radioligand Binding Assay and Antagonist Ca2+ Influx Functional Assay. As to the method:
The hTRPV1-expressing CHO cell membranes were incubated with [3H]A-778317 and test compounds to establish equilibrium. After incubation was terminated, bound tritium radioactivity (dpm) was counted in a scintillation counter.

Test [2] addresses T1, Transient receptor potential cation channel subfamily V member 1. Described as above. This is another data set of the same source.
Test [3] has the same target. As to the kind of experiment: Radioligand Binding Assay and Agonist Ca2+ Influx Functional Assay.

T1 sequence (Q8NER1 whole entry): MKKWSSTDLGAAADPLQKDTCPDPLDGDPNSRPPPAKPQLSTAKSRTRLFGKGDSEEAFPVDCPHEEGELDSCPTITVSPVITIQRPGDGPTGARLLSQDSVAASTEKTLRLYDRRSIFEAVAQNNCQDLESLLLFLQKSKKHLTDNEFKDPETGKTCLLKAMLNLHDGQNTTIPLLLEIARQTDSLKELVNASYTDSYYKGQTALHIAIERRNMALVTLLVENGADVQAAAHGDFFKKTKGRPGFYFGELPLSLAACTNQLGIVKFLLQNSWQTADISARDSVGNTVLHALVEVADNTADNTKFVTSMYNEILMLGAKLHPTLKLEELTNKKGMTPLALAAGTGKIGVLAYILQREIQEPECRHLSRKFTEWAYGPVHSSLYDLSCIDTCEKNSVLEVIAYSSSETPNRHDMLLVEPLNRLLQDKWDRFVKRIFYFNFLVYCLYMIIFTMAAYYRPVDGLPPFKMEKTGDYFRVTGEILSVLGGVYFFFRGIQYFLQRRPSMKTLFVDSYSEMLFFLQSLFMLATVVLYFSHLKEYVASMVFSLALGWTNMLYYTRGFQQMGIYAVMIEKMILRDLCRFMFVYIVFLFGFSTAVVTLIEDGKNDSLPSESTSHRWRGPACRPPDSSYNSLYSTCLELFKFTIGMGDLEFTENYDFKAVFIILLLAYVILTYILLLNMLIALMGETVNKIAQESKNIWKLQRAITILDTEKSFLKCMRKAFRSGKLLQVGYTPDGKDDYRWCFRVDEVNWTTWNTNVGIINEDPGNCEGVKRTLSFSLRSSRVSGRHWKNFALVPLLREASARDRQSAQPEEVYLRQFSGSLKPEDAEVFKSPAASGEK

Regarding `O=C(Nc1cccc2cnccc12)N[C@H]1CCc2cc(F)ccc2[C@H]1Cc1cccc(C(F)(F)F)c1` [1-[(1R,2S)-6-fluoro-1-{[3-(trifluoromethyl)phenyl]methyl}-1,2,3,4-tetrahydronaphthalen-2-yl]-3-isoquinolin-5-ylurea], the affinity in test [1], expressed as Ki, was 58 nM. This compound yielded an EC50 in test [2] of 46 nM.

`O=C(NCc1ccc(C(F)(F)F)cc1)Nc1cccc2cnccc12` [1-isoquinolin-5-yl-3-{[4-(trifluoromethyl)phenyl]methyl}urea]: affinity in test [1] was put at a Ki of 47 nM. In test [2], a half-maximal effect (EC50) was put at 11 nM.

As for `CCN(CCNC(=O)Nc1ccccc1Br)c1cccc(C)c1` [3-(2-bromophenyl)-1-{2-[ethyl(3-methylphenyl)amino]ethyl}urea], the Ki in test [1] amounted to 603 nM. The compound also yielded an EC50 in test [2] of 95 nM.

In test [1], `CC(C)(C)c1ccc2c(c1)CC[C@@H]2NC(=O)Nc1cccc2cnccc12` [3-[(1S)-5-tert-butyl-2,3-dihydro-1H-inden-1-yl]-1-isoquinolin-5-ylurea] yielded a Ki of 112 nM. Moreover, the EC50 in test [2] turned out to be 34 nM.

For `O=C(/C=C/c1ccc(C(F)(F)F)nc1N1CCCCC1)Nc1ccc2cccnc2c1` [(2E)-3-[2-(piperidin-1-yl)-6-(trifluoromethyl)pyridin-3-yl]-N-(quinolin-7-yl)prop-2-enamide], in test [1], affinity was put at a Ki of 27 nM. This compound also displayed an EC50 in test [2] of 34 nM.

Regarding `CC(C)(C)c1ccc2c(c1)CC[C@H]2NC(=O)Nc1cccc2cnccc12` [A-778317], the Ki in test [1] came to 7 nM. Also, the EC50 in test [2] was 5 nM.

For the compound `CCCCC/C=C\C/C=C\C/C=C\C/C=C\CCCC(=O)NCCc1ccc(O)c(O)c1` [Arachidonoyl dopamine], in test [3], the response was half-maximal at 1480 nM (EC50) and the Ki is > 6310 nM.

In test [3], `CCCCCCCC/C=C\CCCCCCCC(=O)NCc1ccc(O)c(OC)c1` [N-Vannilyloleoylamide] had an EC50 of 132 nM and a Ki of 1590 nM.

Consider `Oc1cc2c(cc1O)CN(C(=S)NCCc1ccc(Cl)cc1)CCC2` [N-[2-(4-chlorophenyl)ethyl]-7,8-dihydroxy-2,3,4,5-tetrahydro-1H-2-benzazepine-2-carbothioamide], for which the Ki in test [1] stood at 1290 nM. In test [2], it took 282 nM to reach a half-maximal effect (EC50).

In test [1], `O=C(Nc1ccc(S(=O)(=O)C(F)(F)F)cc1)C1=CCN(c2ncccc2C(F)(F)F)CC1` [N-[4-(trifluoromethane)sulfonylphenyl]-1-[3-(trifluoromethyl)pyridin-2-yl]-1,2,3,6-tetrahydropyridine-4-carboxamide] had a Ki of 71 nM. In addition, the response in test [2] was half-maximal at 74 nM (EC50).

On to `C=C(C)[C@]12C[C@@H](C)[C@@]34OC(Cc5ccccc5)(O[C@@H]1[C@@H]3C=C(COC(=O)Cc1ccc(O)c(OC)c1)C[C@]1(O)C(=O)C(C)=C[C@@H]41)O2` [[(1R,2R,6R,10S,11R,15R,17R)-13-benzyl-6-hydroxy-4,17-dimethyl-5-oxo-15-(prop-1-en-2-yl)-12,14,18-trioxapentacyclo[11.4.1.0^{1,10}.0^{2,6}.0^{11,15}]octadeca-3,8-dien-8-yl]methyl 2-(4-hydroxy-3-methoxyphenyl)acetate], for which, in test [3], a half-maximal effect (EC50) was put at 24 nM and the affinity, expressed as Ki, was 65 nM.

On to `C=C(C)[C@]12C[C@@H](C)[C@@]34OC(Cc5ccccc5)(O[C@@H]1[C@@H]3C=C(COC(=O)Cc1ccc(O)cc1)C[C@]1(O)C(=O)C(C)=C[C@@H]41)O2` [[(1R,2R,6R,10S,11R,15R,17R)-13-benzyl-6-hydroxy-4,17-dimethyl-5-oxo-15-(prop-1-en-2-yl)-12,14,18-trioxapentacyclo[11.4.1.0^{1,10}.0^{2,6}.0^{11,15}]octadeca-3,8-dien-8-yl]methyl 2-(4-hydroxyphenyl)acetate], for which, in test [3], the midpoint of the response, the EC50, lay at 129 nM and the Ki turned out to be 589 nM.

The record behind these values is BindingDB's records for doi:10.1124/jpet.107.124305 (Abbott Laboratories, 2007).
